One series relates to 3-nitrotyrosine. The experiment in a line: Nitrotyrosine-adducted proteins in isolated brain mitochondria (slot blot). The class given is in vivo, mouse. To be noted: 3 hours after ADR 20 mg/kg, hydrochloride. The protocol:
3-Nitrotyrosine levels, a peroxynitrite reaction product marker, were determined as described previously (Lauderback et al. 2001). Briefly, 5 μg isolated mitochondrial proteins were incubated with Laemmli sample buffer (0.125 M Trisma base, pH 6.8, 4% SDS, 20% glycerol) for 20 minutes, and then 250 ng protein were blotted onto the nitrocellulose membrane using a slot-blot apparatus. The membrane was rinsed with TBST buffer, blocked by incubation in the presence of 5% BSA, followed by incubation with rabbit polyclonal anti-nitrotyrosine antibody as primary antibody for 1 h. The membranes were washed with TBST buffer and further incubated with goat anti-rabbit horseradish peroxidase-conjugated secondary antibody for 1 h. After incubation with secondary antibody, the membrane was washed twice with TBST and once in TBS (TBS without 0.05% Tween-20). Immunoreactivities of the protein bands were detected by ECL (Amersham Phamacia Biotech) as described by the manufacturer. Blots were scanned with Adobe Photoshop and quantified by the densitometry method (Bio-Rad).

For another series, the system named is iNOS mRNA. The experiment in a line: iNOS mRNA expression in brain tissues (RT-PCR). The format is in vivo, mouse. The following applies: wild-type mice, 3 hours after treatment, vs saline controls. As for the experimental part:
At 3 hours after treatment, mice were anesthetized and perfused via cardiac puncture with 0.1 M PBS, pH 7.4. The MRNA was isolated using the Micro-FastTrack 2.0 Kit (Invitrogen, Groningen, Netherlands) according to the manufacturer's instructions. The purified MRNA (5 μg) was subjected to reverse-transcription into first strand cDNA in each 20 μL of reaction mixture using the SuperScript III First-Strand Synthesis System for RT-PCR (Invitrogen) according to the manufacturer's instruction. A 25 μL PCR reaction contained 5 μL first strand cDNA, 0.1 U Taq DNA polymerase (Invitrogen), 10 mM 10×PCR buffer, 1.5 mM MgCl2, 2.5 mM dNTP and 10 pmol of each specific primer. PCR samples were subjected to the following conditions: 35 cycles for iNOS (94° C.: 1 minute; 65° C.: 1 minute; 72° C.: 1 minute), 32 cycles for β-actin (94° C.: […]; 55° C.: 30 s; 72° C.: 10 minutes), on a thermocycle (Perkin-Elmer). The primers with the target gene sequences were synthesized by Invitrogen. The primer sequence iNOS was 5′-CTGATGGTCAAGATCCAG-A-GGTCT-3′ (forward) and 5′-[…]-CTCT-3′(reverse), and the primer for β-actin was 5′-TGTTAC-CAACTGGGACGACA-3′ (forward) and 5′-CTGGGTCATCTT-TTCACCGT-3′ (reverse). After amplification, PCR products were subjected to 1% agarose gel electrophoresis, and visualized by ethidium bromide staining. The relative density of bands was analyzed under ultraviolet light (Bio-Rad). Experiments were repeated three times for reproducibility.

Series [1] concerns mitochondrial respiration complex I. Description: Brain mitochondrial respiration, complex I (pyruvate + malate), respiration control ratio. To be noted: 3 hours after treatment, hydrochloride.
Protocol: Mice were perfused via cardiac puncture with cold mitochondrial isolation buffer, the brain promptly removed, the cerebellum dissected away, and mitochondria immediately isolated from the freshly brain by a modification of the method described by Mattiazzi et al. (2002). Brain mitochondria were isolated in cold mitochondrial isolation buffer, containing 0.07 M sucrose, 0.22 M mannitol, 20 mM HEPES, 1 mM EGTA, and 1% bovine serum albumin, pH 7.2. Tissues were homogenized with a Dounce homogenizer and centrifuged at 1,500×g at 4° C. for 5 minutes before transferring the supernatant. The pellets were resuspended and centrifuged at 1,500×g at 4° C. for 5 minutes. The supernatants were combined and centrifuged at 13,500×g at 4° C. for 10 minutes. Mitochondrial pellets were washed twice and finally resuspended in 50-100 μL cold isolation buffer. Protein concentration of isolated mitochondria was determined by the Bradford assay (Bradford, 1976). The final protein concentration was 20-40 mg/ml.
Mitochondrial respiration was determined using Clark-type polarographic oxygen sensors (Hansatech Instruments, Kings Lynn, Norfolk, UK) to measure the rate of oxygen consumption. Freshly isolated mitochondria were suspended in respiration buffer at a concentration of 0.5 mg mitochondrial protein per mL of respiration buffer, which consists of 0.25 M sucrose, 50 mM HEPES, 1 mM EGTA, 10 mM KH2PO4, and 2 mM MgCl2, pH 7.4. Oxygen consumption was measured with either pyruvate (10 mM) plus malate (10 mM) or succinate (10 mM) as substrates for respiration from complex I or complex II in the absence of exogenous ADP (state II) and after addition of 300 mM ADP (state III respiration). Rotenone (5 μM) was added to the reaction to inhibit respiration from complex I when succinate was used as the substrate. […] FCCP (1 μM), an uncoupling agent, was added as a control of respiration. Respiration control ratios (RCR) were calculated as the ratios of state III and state II respiration as described previously by Estabrook (1967). The unit for state II rate and state III rate is nmole/min/mg protein.
Mice were perfused via cardiac puncture with cold mitochondrial isolation buffer, the brain promptly removed, the cerebellum dissected away, and mitochondria immediately isolated from the freshly brain by a modification of the method described by Mattiazzi et al. (2002). Brain mitochondria were isolated in cold mitochondrial isolation buffer, containing 0.07 M sucrose, 0.22 M mannitol, 20 mM HEPES, 1 mM EGTA, and 1% bovine serum albumin, pH 7.2. Tissues were homogenized with a Dounce homogenizer and centrifuged at 1,500×g at 4° C. for 3 minutes before transferring the supernatant fluid. The pellets were resuspended and centrifuged at 1,500×g at 4° C. for 3 minutes. The supernatant fluids were combined and centrifuged at 1,500×g at 4° C. for 3 minutes. These supernatant fluids were then centrifuged at 13,500×g at 4° C. for 10 minutes. Mitochondrial pellets were washed twice and finally resuspended in 50-100 μL cold isolation buffer. Protein concentration of isolated mitochondria was determined by the Bradford assay (Bradford, 1976).
Mitochondrial respiration was determined using Clark-type polarographic oxygen sensors (Hansatech Instruments, UK) to measure the rate of oxygen consumption. Freshly-isolated mitochondria were suspended in respiration buffer at a concentration of 0.5 mg mitochondrial protein/mL respiration buffer, which consisted of 0.25 M sucrose, 50 mM HEPES, 1 mM EGTA, 10 mM KH2PO4, 2 mM MgCl2 and 0.2% BSA, pH 7.4. Oxygen consumption was measured with either pyruvate (10 mM) or pyruvate plus malate (10 mM) as substrates for respiration from complex I, in the absence of exogenous ADP (state II), and after addition of 300 mM ADP (state III respiration). […] FCCP (1 μM), an uncoupling agent, was added as a control respiration. Respiration control ratios (RCR) were calculated as the ratios of state III and state II respiration.
Series [2] deals with TNF α. Description: Immunofluorescence of TNF α localization in neurons of cortex and hippocampus (MAP2 co-staining). The format is in vivo, mouse. To be noted: 3 hours after 20 mg/kg ADR, vs saline; hydrochloride. The protocol: Brain tissue slices were fixed in 4% paraformaldehyde for 15 minutes, air dried, and washed with PBS. Non-specific proteins were blocked in blocking serum, consisting of 3% normal donkey's serum, and 0.3% Triton x-100 in PBS, and incubated at room temperature for 30 minutes. After blocking, slices were incubated with primary anti-TNF α (Upstate, Lake Placid, N.Y.), and anti-MAP2 antibody (Chemicon, Temecula, Calif.) was used as a neuronal marker, in order to study the location of TNF α in neurons of cortical and hippocampal regions. The sections were kept in a humidified box at 4° C. overnight. Tissues were washed three times with PBS and then were incubated for 1 hour with donkey antibody-conjugated secondary antibodies coated with fluorescent dyes. Excess secondary antibodies were removed by washing three times in PBS and once with deionized H2O. Tissue slides were mounted with mounting medium (Vectashield, HOURS-100, Vector Laboratories, Burlingame, Calif.). Photomicrographs were obtained using a Leica confocal fluorescence microscope (Leica Microsystems Inc., Bannockburn, Ill., USA).

Series [3] concerns TNF α. Description: TNF α levels in serum (mouse TNF-α ELISA). The format is in vivo. The protocol: Mice were treated with 20 mg/kg ADR or saline as control. Blood samples were collected at 1, 3, 6, 9, 24 hours and allowed to clot at 2-8° C. overnight. Serum samples were used to measure TNF α levels, according to the mouse enzyme-linked immunosorbent assay following the manufacturers' instructions (mouse TNF-α/TNFSF1A immunoassay, R&D Systems, Minneapolis, MN). The TNF α concentration in the sample was calculated from a recombinant mouse TNF α standard curve. The minimum detection limit is typically less than 5.1 pg/mL.
8-week-old male B6C3 mice (25-30 g) were kept under standard conditions. Mice were injected with a single intraperitoneal (i.p.) treatment with adriamycin (doxorubicin hydrochloride, 20 mg/kg), TNF-α, anti-mouse TNF-antibody (40 ng/kg), dipropylenetriamine NONOate (DPTA NONOate, […]), lipopolysaccharide (LPS 1 mg/kg), NG-nitro-L-arginine-methyl esther (L-NAME, 10 mg/kg) or pre-immune IgG.
Mice were treated with 20 mg/kg ADR, TNF-α, anti-mouse TNF-antibody, dipropylenetriamine NONOate, lipopolysaccharide, NG-nitro-L-arginine-methyl esther or pre-immune IgG, as well as saline as control. Blood samples were collected at 3 hours after ADR treatment and allowed to clot at 2-8° C. overnight. Serum samples were used to measure TNF levels, according to the mouse enzyme-linked immunosorbent assay following the manufacturers' instructions (mouse TNF-α/TNFSF1A immunoassay, R&D Systems, Minneapolis, Minn.). The TNF concentration in the sample was calculated from a recombinant mouse TNF standard curve. The minimum detection limit is typically less than 5.1 pg/mL.

Entries after “also recorded” stand apart in the source; their conditions may differ. Where a name gives a salt, the structure may show the parent alone.

With `COc1cccc2c1C(=O)c1c(O)c3c(c(O)c1C2=O)C[C@@](O)(C(=O)CO)C[C@@H]3O[C@H]1C[C@H](N)[C@H](O)[C@H](C)O1` [ADR, Doxorubicin hydrochloride], the “Tyrosine-nitrated proteins in brain mitochondria” value in the series on 3-nitrotyrosine (iNOSKO mice) is listed as “no difference with controls”. The “Tyrosine-nitrated proteins in brain mitochondria” value with 3-nitrotyrosine (wild-type mice) is reported as “significantly increased protein nitration”. Moreover, the “iNOS mRNA levels in brain tissues” value in the series on iNOS mRNA was “significantly increased”. Besides, the “Brain mitochondrial respiration complex I (RCR)” value in series [1] (iNOSKO mice) was “no effect; also recorded: not in iNOSKO mice”. The “Brain mitochondrial respiration complex I (RCR, state III / state II)” value in series [1] (wild-type mice, vs saline control) is recorded as “significantly decreased; also recorded: decline”. Further, in the series on TNF α [2], the “TNF α in neurons of cortex” value is “clearly were increased” and the “TNF α in neurons of hippocampus” value is reported as “clearly were increased”. In addition, in the series on TNF α [3] (20 mg/kg ADR, blood at 1, 3, 6, 9, 24 hours, hydrochloride), the “Time course of increased serum TNF α” value is “detectable as early as 1 hour and were sustained throughout a 24 hour period; also recorded: increased at the earliest time point examined”. Further, the “TNF-α level in serum (circulating TNF-α)” value with TNF α [3] (iNOSKO mice, 3 hours after treatment) is recorded as “significantly elevated”. Further, the “TNF α level in serum (circulating TNF α)” value with TNF α [3] (wild-type mice, 3 hours after single i.p. treatment, vs saline control, hydrochloride) was “significantly higher; also recorded: significantly elevated”.
